Columns and labels:
[1] = target: Serine/threonine-protein kinase MARK1 (Homo sapiens) (UniProt Q9P0L2); conditions: Compound concentration 1000.0 nM
[2] = target: Serine/threonine-protein kinase TNNI3K (Homo sapiens) (UniProt Q59H18); conditions: Compound concentration 1000.0 nM
[3] = target: Prostaglandin F2-alpha receptor (Homo sapiens) (UniProt P43088); experiment: FPH_AGON Cerep selectivity data (BI); conditions: filed as agonist, Compound concentration 20.0 uM
[4] = target: 72 kDa type IV collagenase (Homo sapiens) (UniProt P08253); experiment: MMP-2 (H) Cerep selectivity data (BI); conditions: Compound concentration 20.0 uM
[5] = target: Dual specificity mitogen-activated protein kinase kinase 2 (Homo sapiens) (UniProt P36507); experiment: MAP2K2 Invitrogen selectivity data (BI); conditions: Compound concentration 3.0 uM
Sequence of Dual specificity mitogen-activated protein kinase kinase 2 (Homo sapiens) (P36507 whole entry): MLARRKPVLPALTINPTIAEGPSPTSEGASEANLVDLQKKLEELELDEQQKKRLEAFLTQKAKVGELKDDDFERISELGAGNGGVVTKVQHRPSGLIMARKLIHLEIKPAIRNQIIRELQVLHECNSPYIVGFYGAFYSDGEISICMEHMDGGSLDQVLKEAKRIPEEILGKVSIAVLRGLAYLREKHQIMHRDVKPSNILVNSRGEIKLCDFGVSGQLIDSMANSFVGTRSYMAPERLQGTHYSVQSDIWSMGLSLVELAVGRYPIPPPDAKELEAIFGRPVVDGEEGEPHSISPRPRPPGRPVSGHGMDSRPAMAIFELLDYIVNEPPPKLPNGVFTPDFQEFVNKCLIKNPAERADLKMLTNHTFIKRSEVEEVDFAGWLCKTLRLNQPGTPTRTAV

[6] = target: Receptor tyrosine-protein kinase erbB-4 (Homo sapiens) (UniProt Q15303); experiment: ERBB4 Invitrogen selectivity data (BI); conditions: Compound concentration 3.0 uM
[7] = target: Dual specificity protein kinase CLK3 (Homo sapiens) (UniProt P49761); experiment: CLK3 Invitrogen selectivity data (BI); conditions: Compound concentration 3.0 uM
[8] = target: Substance-P receptor (Homo sapiens) (UniProt P25103); experiment: NK1/HUM Cerep selectivity data (BI); conditions: Compound concentration 20.0 uM
Sequence of Substance-P receptor (Homo sapiens) (P25103 whole entry): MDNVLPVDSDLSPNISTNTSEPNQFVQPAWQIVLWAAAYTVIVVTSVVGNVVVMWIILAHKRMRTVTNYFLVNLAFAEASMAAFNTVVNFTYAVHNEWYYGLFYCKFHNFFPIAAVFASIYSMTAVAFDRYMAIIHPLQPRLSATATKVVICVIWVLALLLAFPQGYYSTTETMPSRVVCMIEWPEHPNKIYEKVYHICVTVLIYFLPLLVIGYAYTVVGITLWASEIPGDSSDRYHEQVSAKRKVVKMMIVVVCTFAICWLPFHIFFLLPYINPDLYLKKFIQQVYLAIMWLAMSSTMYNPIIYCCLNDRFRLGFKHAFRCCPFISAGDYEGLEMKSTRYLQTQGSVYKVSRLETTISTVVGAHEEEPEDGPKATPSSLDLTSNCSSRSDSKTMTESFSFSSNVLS

[9] = target: Sodium-dependent dopamine transporter (Homo sapiens, UniProt Q01959); experiment: DATRANS/HUM Cerep selectivity data (BI); conditions: Compound concentration 20.0 uM
Sequence of Sodium-dependent dopamine transporter (Q01959 whole entry): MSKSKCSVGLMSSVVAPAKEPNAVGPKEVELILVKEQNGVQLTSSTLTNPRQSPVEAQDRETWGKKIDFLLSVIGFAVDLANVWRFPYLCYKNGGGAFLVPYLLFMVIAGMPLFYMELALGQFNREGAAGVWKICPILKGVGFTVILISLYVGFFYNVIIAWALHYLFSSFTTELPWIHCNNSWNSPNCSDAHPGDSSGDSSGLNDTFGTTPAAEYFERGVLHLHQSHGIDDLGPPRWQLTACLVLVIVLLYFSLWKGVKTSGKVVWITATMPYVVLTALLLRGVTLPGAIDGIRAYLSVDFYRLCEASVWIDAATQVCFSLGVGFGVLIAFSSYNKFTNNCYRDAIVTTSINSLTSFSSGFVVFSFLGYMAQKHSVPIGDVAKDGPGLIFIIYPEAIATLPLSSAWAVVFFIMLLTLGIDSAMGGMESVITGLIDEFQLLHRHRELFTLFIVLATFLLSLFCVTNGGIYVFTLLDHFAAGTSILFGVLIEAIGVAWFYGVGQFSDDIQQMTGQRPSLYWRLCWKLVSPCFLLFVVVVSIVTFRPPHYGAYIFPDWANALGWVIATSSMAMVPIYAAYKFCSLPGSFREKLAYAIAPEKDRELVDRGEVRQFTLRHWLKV

[10] = target: Nicotinic acetylcholine receptor alpha-1/beta-1 (Homo sapiens) (UniProt P02708+P11230); experiment: NACH_BS_N/H Eurofins-Panlabs selectivity data (BI); assay type: protein-complex assay; conditions: Compound concentration 10.0 uM
[11] = target: T1, Activin receptor type-1B (Homo sapiens) (UniProt P36896); experiment: ACVR1B Invitrogen selectivity data (BI); conditions: Compound concentration 3.0 uM
T1 sequence (whole entry): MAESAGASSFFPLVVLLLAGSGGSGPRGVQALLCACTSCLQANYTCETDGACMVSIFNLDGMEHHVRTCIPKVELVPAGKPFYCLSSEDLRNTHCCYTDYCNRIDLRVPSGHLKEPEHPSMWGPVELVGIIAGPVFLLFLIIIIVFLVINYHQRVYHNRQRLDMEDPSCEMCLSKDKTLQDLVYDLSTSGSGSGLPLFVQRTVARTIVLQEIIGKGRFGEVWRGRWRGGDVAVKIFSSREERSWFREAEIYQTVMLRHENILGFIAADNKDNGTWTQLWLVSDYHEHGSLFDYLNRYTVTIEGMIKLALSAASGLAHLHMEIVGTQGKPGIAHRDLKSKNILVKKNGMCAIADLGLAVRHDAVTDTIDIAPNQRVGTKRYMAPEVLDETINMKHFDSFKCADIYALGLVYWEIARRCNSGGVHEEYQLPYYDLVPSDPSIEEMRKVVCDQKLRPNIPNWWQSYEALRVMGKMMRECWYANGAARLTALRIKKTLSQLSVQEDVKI

[12] = target: Interstitial collagenase (Homo sapiens) (UniProt P03956); experiment: MMP1 (H) Cerep selectivity data (BI); conditions: Compound concentration 20.0 uM
Sequence of Interstitial collagenase (Homo sapiens) (P03956 whole entry): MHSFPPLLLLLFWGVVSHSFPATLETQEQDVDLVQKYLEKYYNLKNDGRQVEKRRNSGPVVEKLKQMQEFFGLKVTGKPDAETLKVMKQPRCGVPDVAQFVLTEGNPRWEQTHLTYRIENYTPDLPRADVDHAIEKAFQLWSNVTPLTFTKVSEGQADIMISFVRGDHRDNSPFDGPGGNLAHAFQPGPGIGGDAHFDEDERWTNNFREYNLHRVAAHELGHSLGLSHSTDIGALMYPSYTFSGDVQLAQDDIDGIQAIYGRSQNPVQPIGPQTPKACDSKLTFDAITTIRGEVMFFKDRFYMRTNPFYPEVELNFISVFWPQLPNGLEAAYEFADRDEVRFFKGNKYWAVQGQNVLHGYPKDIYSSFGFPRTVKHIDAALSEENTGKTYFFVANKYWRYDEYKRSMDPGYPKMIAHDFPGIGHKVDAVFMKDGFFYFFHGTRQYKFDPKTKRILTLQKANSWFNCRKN

[13] = system: Platelet-derived growth factor receptor alpha (Homo sapiens), P16234 [D842V]; experiment: PDGFRA D842V Invitrogen selectivity data (BI); conditions: Compound concentration 3.0 uM
[14] = target: Vascular endothelial growth factor receptor 3 (Homo sapiens) (UniProt P35916); experiment: FLT4 Invitrogen selectivity data (BI); conditions: Compound concentration 3.0 uM
Sequence of Vascular endothelial growth factor receptor 3 (Homo sapiens) (P35916 whole entry): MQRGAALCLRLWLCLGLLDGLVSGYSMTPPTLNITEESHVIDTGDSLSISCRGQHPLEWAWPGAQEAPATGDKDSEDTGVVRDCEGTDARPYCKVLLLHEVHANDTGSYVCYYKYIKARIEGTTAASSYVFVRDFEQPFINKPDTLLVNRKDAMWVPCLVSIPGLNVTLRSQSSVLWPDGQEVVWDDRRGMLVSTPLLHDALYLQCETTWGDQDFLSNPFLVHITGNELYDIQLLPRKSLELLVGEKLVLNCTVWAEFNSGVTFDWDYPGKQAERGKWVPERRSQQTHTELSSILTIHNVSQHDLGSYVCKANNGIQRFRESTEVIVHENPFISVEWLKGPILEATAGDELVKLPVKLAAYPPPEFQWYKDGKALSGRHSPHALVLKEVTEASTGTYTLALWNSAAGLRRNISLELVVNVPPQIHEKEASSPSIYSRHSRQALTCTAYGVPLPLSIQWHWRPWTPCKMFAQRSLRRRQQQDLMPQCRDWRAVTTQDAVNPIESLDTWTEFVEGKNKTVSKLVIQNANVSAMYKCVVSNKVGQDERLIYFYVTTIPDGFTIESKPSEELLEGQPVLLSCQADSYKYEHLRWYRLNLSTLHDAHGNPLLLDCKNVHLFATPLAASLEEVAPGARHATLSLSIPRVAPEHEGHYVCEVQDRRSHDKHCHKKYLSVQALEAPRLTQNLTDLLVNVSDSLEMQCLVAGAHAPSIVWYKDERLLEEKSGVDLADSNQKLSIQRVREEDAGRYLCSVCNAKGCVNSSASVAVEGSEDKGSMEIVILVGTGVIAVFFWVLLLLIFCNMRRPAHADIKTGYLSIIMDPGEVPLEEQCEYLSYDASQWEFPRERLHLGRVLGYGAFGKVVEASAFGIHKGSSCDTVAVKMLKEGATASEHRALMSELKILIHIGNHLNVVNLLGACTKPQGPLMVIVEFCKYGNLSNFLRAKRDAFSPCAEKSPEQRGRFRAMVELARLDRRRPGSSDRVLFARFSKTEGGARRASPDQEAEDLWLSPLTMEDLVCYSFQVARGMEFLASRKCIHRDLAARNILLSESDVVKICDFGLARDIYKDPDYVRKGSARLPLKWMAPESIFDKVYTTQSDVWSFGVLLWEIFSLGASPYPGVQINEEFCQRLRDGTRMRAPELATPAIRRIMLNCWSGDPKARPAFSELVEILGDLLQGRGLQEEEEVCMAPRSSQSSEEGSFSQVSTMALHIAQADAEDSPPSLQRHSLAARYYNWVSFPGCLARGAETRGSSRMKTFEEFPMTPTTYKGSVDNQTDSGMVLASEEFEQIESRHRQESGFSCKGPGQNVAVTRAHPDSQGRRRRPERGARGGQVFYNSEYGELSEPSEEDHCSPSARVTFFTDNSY

[15] = target: BDNF/NT-3 growth factors receptor (Homo sapiens) (UniProt Q16620); experiment: NTRK2 Invitrogen selectivity data (BI); conditions: Compound concentration 3.0 uM
[16] = target: T2, Cytoplasmic tyrosine-protein kinase BMX (Homo sapiens) (UniProt P51813); experiment: BMX Invitrogen selectivity data (BI); conditions: Compound concentration 3.0 uM
T2 sequence (whole entry): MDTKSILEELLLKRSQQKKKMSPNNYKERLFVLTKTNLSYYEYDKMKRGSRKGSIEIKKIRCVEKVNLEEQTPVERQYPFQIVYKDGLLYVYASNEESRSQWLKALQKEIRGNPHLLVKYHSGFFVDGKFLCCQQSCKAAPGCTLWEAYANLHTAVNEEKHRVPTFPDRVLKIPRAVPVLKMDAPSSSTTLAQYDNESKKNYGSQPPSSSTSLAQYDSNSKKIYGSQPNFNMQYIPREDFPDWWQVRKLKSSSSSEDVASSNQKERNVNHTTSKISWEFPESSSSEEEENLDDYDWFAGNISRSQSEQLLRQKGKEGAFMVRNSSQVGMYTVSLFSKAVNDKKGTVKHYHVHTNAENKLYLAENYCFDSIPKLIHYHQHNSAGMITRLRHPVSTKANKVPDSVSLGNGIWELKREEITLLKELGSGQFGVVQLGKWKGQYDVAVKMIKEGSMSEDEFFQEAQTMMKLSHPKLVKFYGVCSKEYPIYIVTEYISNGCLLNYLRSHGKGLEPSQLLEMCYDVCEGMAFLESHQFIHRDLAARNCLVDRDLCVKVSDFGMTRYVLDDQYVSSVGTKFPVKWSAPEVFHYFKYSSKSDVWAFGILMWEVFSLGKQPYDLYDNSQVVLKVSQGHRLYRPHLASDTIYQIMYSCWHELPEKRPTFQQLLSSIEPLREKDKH

[17] = target: Casein kinase I isoform epsilon (Homo sapiens) (UniProt P49674); experiment: CSNK1E Invitrogen selectivity data (BI); conditions: Compound concentration 3.0 uM
Sequence of Casein kinase I isoform epsilon (Homo sapiens) (P49674 whole entry, looked up, canonical isoform): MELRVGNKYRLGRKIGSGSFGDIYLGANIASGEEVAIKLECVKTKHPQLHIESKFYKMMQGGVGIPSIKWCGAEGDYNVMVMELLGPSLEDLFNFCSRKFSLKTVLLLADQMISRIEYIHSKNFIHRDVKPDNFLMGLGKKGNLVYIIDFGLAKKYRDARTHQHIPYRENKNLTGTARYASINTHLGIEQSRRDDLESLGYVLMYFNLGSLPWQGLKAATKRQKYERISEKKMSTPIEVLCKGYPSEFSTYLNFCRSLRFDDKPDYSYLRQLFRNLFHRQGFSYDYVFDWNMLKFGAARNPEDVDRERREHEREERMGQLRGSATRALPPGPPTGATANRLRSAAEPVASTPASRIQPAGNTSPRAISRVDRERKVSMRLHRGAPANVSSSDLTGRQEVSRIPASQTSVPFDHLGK

[18] = system: Epidermal growth factor receptor (Homo sapiens), P00533 [UNDEFINED MUTATION]; experiment: EGFRT790L858 Invitrogen selectivity data (BI); conditions: Compound concentration 3.0 uM
[19] = target: Dual specificity mitogen-activated protein kinase kinase 1 (Homo sapiens) (UniProt Q02750); experiment: MAP2K1 Invitrogen selectivity data (BI); conditions: Compound concentration 3.0 uM
[20] = target: P2X purinoceptor (Oryctolagus cuniculus) (UniProt G1U3D6); experiment: P2X/RB Eurofins-Panlabs selectivity data (BI); conditions: Compound concentration 10.0 uM
Sequence of P2X purinoceptor (Oryctolagus cuniculus) (G1U3D6 as listed by the source): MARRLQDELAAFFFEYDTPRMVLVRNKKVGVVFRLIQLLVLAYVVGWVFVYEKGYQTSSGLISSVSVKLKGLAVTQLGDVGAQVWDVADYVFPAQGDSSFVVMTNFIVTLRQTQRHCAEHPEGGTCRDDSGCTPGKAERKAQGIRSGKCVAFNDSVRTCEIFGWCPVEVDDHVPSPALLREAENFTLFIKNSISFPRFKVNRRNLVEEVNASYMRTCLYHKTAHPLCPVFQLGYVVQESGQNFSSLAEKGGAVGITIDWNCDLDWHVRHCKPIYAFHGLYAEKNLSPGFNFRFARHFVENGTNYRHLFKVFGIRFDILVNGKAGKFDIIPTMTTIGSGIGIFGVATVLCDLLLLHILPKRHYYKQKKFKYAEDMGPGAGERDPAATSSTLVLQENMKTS

[21] = target: Dual specificity tyrosine-phosphorylation-regulated kinase 1A (Homo sapiens) (UniProt Q13627); experiment: DYRK1A Invitrogen selectivity data (BI); conditions: Compound concentration 3.0 uM
[22] = target: T3, Dual specificity mitogen-activated protein kinase kinase 6 (Homo sapiens) (UniProt P52564); experiment: MAP2K6_S_T_E Invitrogen selectivity data (BI); conditions: Compound concentration 3.0 uM
T3 sequence (whole entry): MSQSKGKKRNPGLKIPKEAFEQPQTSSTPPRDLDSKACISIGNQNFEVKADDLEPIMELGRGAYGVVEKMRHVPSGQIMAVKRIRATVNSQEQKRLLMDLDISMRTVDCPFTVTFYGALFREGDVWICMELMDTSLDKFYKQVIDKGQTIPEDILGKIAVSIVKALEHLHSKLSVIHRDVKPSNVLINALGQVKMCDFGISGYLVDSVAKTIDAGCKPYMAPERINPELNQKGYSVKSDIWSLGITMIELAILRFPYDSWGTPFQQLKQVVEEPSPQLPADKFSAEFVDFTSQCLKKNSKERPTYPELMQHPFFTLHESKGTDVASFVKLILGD

[23] = target: Cysteinyl leukotriene receptor 1 (Homo sapiens) (UniProt Q9Y271); experiment: LTD4/H Cerep selectivity data (BI); conditions: Compound concentration 20.0 uM
[24] = target: Sodium-dependent noradrenaline transporter (Homo sapiens) (UniProt P23975); experiment: NEUP/H Cerep selectivity data (BI); conditions: Compound concentration 20.0 uM
[25] = target: D(3) dopamine receptor (Homo sapiens) (UniProt P35462); experiment: D3/H Cerep selectivity data (BI); conditions: Compound concentration 20.0 uM

Measured: residual activity

Sequence of Serine/threonine-protein kinase TNNI3K (Homo sapiens) (Q59H18 whole entry): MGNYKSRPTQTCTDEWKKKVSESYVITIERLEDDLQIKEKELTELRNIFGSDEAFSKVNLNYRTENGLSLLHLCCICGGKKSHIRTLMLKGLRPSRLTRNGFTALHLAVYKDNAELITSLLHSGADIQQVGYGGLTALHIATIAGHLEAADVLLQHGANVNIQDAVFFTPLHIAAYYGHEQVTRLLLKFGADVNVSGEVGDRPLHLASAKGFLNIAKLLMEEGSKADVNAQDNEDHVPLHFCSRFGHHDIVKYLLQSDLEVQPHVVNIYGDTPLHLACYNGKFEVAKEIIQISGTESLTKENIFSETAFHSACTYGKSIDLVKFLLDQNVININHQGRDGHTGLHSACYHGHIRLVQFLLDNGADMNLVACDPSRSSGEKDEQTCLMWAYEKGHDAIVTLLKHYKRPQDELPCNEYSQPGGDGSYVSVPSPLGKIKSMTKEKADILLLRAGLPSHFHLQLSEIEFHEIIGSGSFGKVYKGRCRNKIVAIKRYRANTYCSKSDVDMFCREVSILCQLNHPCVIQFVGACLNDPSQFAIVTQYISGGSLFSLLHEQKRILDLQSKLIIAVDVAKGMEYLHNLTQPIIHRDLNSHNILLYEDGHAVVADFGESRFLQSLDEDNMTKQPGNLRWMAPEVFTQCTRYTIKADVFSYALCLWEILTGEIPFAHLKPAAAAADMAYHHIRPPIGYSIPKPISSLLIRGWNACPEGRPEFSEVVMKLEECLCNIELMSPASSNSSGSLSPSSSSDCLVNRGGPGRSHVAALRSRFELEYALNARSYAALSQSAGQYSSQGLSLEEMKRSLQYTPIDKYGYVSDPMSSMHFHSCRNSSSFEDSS

CN(C)C(=O)Cn1cc(-c2nc(C3(c4ccc(-c5cnc(N)nc5)cc4)CC3)no2)cn1 [BI 0153]
inactive: [1] 100% | [2] 100%

CN(C)C(=O)Cn1cc(-c2nc([C@@](C)(c3ccc(-c4cnc(N)nc4)cc3)C3CC3)no2)cn1 [BI 665915]
inactive: [3] 84% | [4] 96% | [5] 96% | [6] 98.5% | [7] 95.5% | [8] 95% | [9] 87% | [10] 99% | [11] 104% | [12] 97% | [13] 95% | [14] 69.5% | [15] 94.5% | [16] 95% | [17] 95% | [18] 101% | [19] 98% | [20] 111% | [21] 100% | [22] 100% | [23] 101% | [24] 94% | [25] 100%

From ChEMBL document CHEMBL4507276 (2021)
